Source: article PMC5955599, “The HTLV-1 gp21 fusion peptide inhibits antigen specific T-cell activation in-vitro and in mice” (PLoS Pathogens, 2018)
“Also recorded” adds a separate entry of the source.

Experiments:
Format in all cases: cell-based, mouse (C57Bl/6J)
[1] = test system: MOG35-55–antigen specific T-cells; assay: In-vitro T-cell proliferative response (H3-thymidine incorporation); settings: peptide at 10μM
[2] = test system: MOG35-55–antigen specific T-cells; assay: mRNA expression in activated T-cells (qRT-PCR); settings: 10μM; APC activation; RNA 24 hours following activation; normalized to Rpl13a; n≥3
Description: Fig 2 Modulation of Th1/Th2 gene expression and cytokine secretion from activated T-cells by the HTLV FP. MOG35-55–antigen specific T-cells were activated by irradiated MOG35-55 presenting APCs, in the presence of the HTLV FP at 10μM. (A) Total RNA was isolated 24 hours following activation and mRNA expression levels were determined by qRT-PCR. The values of each gene were normalized to Rpl13a as a housekeeping control. The HTLV FP reduces mRNA expression of Th1 specific genes (IFNG, LTA, and STAT4) and elevates mRNA expression of Th2 specific genes (IL4 and IL10). The data is presented as arbitrary units. n≥3. (B) Media was collected 24 hours following activation and secretion of cytokines was measured by ELISA assay. IFN-γ secretion is inhibited, IL4 secretion is elevated and TNFα is not affected by the HTLV FP. n = 12. One-way ANOVA was used for statistical analysis. *P<0.05; **P<0.01;***P<0.001.
(§1) (A-B) MOG35-55–antigen specific T-cells were activated by irradiated MOG35-55 presenting APCs, in the presence of the HTLV FP at 10μM. Total RNA was isolated 24 hours following activation and mRNA expression levels were determined by qRT-PCR. The values of each gene were normalized to Rpl13a as a housekeeping control. The HTLV FP reduces TBX21 (T-bet) mRNA expression and elevates GATA3 mRNA expression. The data is presented as arbitrary units. n≥3. (C-H) MOG35-55–antigen specific T-cells were activated by irradiated MOG35-55 presenting APCs, in the presence of either HTLV or HIV FP at 10μM. Samples were fixed in 4% PFA and stained with anti T-bet-APC and anti Gata3-FITC antibodies (C-D) 24, (E-F) 48 and (G-H) 72 hours following activation. Each time point is represented as cell count vs. APC or FITC fluorescence histogram. Analysis was performed using LSR-II flow cytometer (BD) and FlowJo cell analysis software (FlowJo, LLC). The HTLV FP reduces T-bet expression and elevates Gata3 expression. n = 3. One-way ANOVA was used for statistical analysis. ns, not significant; *P<0.05;** P<0.01.
Antigen-specific T-cells were plated onto round 12-well plates (10^6 cells/ well) and activated with 5x10^5 irradiated (25 gray) APC and 5μg/ml of MOG p35-55 in the presence or absence of relevant peptides. Total RNA from cells was isolated 24 hours following activation using the NucleoSpin RNA II kit (Macherey-Nagel, Duren, Germany). 2μg aliquot of the total RNA was reverse transcribed into cDNA using Bio-RT (Bio-Lab, Jerusalem, Israel), dNTPs and random hexamer primers. qRT-PCR was performed on Step One Plus, ABI instrument (Applied Biosystems, Grand Island, NY, USA) using SYBR Green PCR Master Mix (Quanta BioSciences, Gaithersburg, MD, USA). The values for the specific genes were normalized to Rpl13a (mouse) as housekeeping controls and the data are described in arbitrary units. PCR reactions were performed in duplicate. The specific primers used for qRT-PCR are available on request.

[3] = test system: MOG35-55–antigen specific T-cells; assay: T-bet and Gata3 expression detected by FACS; settings: peptide at 10μM, APC activation, n = 3
Description: as §1
Antigen-specific T-cells were plated onto round 12-well plates (10^6 cells/ well) and activated with 5x10^5 irradiated (25 gray) APC and 5μg/ml of MOG p35-55 in the presence or absence of relevant peptides. Cells were washed with PBS, blocked (5% Donkey serum, 2% BSA and 0.1% Triton in PBS) and fixed with 4% Paraformaldehyde (PFA) 24 hour following activation. Cells were then stained with Gata3-FITC and T-bet-APC fluorochrome-labeled monoclonal mouse antibodies (purchased from Miltenyi Biotec) according to Miltenyi Biotec protocols. Samples were then collected using LSR-II flow cytometer and analyzed with FlowJo cell analysis software.

AVPVAVWLVSALAMGAGVAGGITGSMSLASGKS [HTLV FP, gp21 fusion peptide of HTLV-1, MT-2 isolate]
inhibition of T-cell proliferation, activation by PMA and Ionomycin ([1]; 50ng/mL PMA with 1μM ionomycin, n = 12): inhibited T-cell proliferation induced at all three levels of activation with equal potency | inhibition of T-cell proliferation, activation by antibodies against CD3 and CD28 ([1]; CD3 and CD28 antibodies 2μg/ml, n = 12): inhibited T-cell proliferation induced at all three levels of activation with equal potency | inhibition of T-cell proliferation, activation by MOG35-55 presenting APCs ([1]; irradiated MOG35-55 presenting APCs, mean inhibition of proliferation, n = 12, 10 µM): inhibit T-cell proliferation with equal potency to that of HIV’s FP and significantly stronger than the BLV FP; also recorded: inhibited T-cell proliferation induced at all three levels of activation with equal potency; also recorded: inhibited both T-cell proliferation and IFN-γ secretion with higher potency than the HTLV Scr; also recorded: inhibit T-cell proliferation with higher potency than HTLV FP9-22 and HTLV FP14-22 | GATA3 mRNA expression [2]: elevated Gata3 expression | IFNG mRNA level [2]: reduced the mRNA levels | IL4 mRNA level [2]: elevated the mRNA levels | IL10 mRNA level [2]: elevated the mRNA levels | LTA mRNA level [2]: reduced the mRNA levels | STAT4 mRNA level [2]: reduced the mRNA levels | TBX21 (T-bet) mRNA expression [2]: reduced TBX21 (T-bet) expression | Gata3 expression (protein), 24 hours ([3]; 24 hours following activation): elevated Gata3 expression | T-bet expression (protein), 24 hours ([3]; 24 hours following activation): reduced T-bet expression | Gata3 expression (protein), 48 hours ([3]; 48 hours following activation): elevated Gata3 expression | T-bet expression (protein), 48 hours ([3]; 48 hours following activation): reduced T-bet expression | Gata3 expression (protein), 72 hours ([3]; 72 hours following activation): elevated Gata3 expression | T-bet expression (protein), 72 hours ([3]; 72 hours following activation): no difference was observed
